This note sets out measurements from ChEMBL document CHEMBL1201862, “PubChem BioAssay data set” (2004).

For one experiment, the target named is Paired box protein Pax-8 (Homo sapiens, UniProt Q06710). Briefly: PAX8 transcriptional activity inhibition in RMG-I – RMG-I cells, luciferase, cherry-pick, dose response (AID 687027).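 Further: luciferase reporter driven by Pax8 target thyroperoxidase promoter measured by SteadyGlo luminescence.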 The experiment is classed as functional, cell-based.
A short description of experiment [1]: toxicity toward immortalized ovarian surface epithelium – cell-based, plate reader, dry powder samples, cytotoxicity control for PAX8 inhibitor project, dose response (AID 743045). The experiment is classed as functional.
A short description of experiment [2]: OVCAR-3 cell viability loss – plate reader, dry powder samples, PAX8 inhibitor project, dose response (AID 743044). In kind it is functional, cell-based.
Experiment [3] can be described thus: OVCAR8 cell viability loss – plate reader, dry powder samples, PAX8 project, dose response (AID 743197). The note with it: OVCAR-8. The experiment is classed as functional, cell-based.
A further experiment has as its target Kallikrein-7 (Homo sapiens, UniProt P49862). Briefly: Fluorescence Intensity-based biochemical primary high throughput dose response assay to identify activators of kallikrein-7 (K7) zymogen.
Experiment [4] has as its target RNA-editing ligase 1, mitochondrial (Trypanosoma brucei brucei, UniProt P86926). Briefly: inhibition of trypanosome RNA editing ligase – biochemical, fluorescence, Trypanosoma brucei, dose response (AID 1117295). In kind it is functional.
The target of experiment [5] is T1, Beta-galactosidase (Escherichia coli, UniProt Q8VNN2). Put plainly: PubChem AID 485352. The experiment is classed as functional.
Experiment [6] concerns the target T2, Type-1 angiotensin II receptor (Homo sapiens, UniProt P30556).
T2 sequence (P30556 whole entry): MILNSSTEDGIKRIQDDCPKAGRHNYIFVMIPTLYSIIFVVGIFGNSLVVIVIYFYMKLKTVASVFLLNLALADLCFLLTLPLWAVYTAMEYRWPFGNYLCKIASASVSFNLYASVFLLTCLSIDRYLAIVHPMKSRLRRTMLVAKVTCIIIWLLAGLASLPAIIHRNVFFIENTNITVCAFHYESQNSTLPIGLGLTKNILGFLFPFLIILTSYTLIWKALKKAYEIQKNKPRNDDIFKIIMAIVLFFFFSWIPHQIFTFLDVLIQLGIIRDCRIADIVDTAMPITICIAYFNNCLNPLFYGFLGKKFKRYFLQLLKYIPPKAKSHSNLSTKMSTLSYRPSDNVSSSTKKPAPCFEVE
Briefly: antagonism of angiotensin II type 1 receptor – cell-based, uHTS hits, selectivity assay for APJ receptor antagonist project, dose response (AID 463214).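 Further: antagonist potency against angiotensin II stimulated AT1 response.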 The experiment is classed as functional.

The target in experiment [7] is T1, Beta-galactosidase. Put plainly: Dose response counterscreen for EBI2 assay utilizing the enzyme, b-galactosidase. In kind it is functional.
The nature of experiment [8]: cytotoxicity in MITF-independent A375 cells – cell-based, CellTiter-Glo luminescence, dry powder, set 4, counter-screen for MITF inhibitor project, dose response (AID 624364).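 Further: A375 melanoma cells are MITF independent so this is a counter screen.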 The experiment is classed as functional. The note with it: A-375.
Experiment [9] in a line: viability loss in MITF-independent A375 cells – cell-based, CellTiter-Glo luminescence, dry powder, set 2, counter-screen for MITF inhibitor project, dose response (AID 624489).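 Further: actives are compounds lowering A375 viability meaning general cytotoxicity.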 The experiment is classed as functional. The note with it: A-375. A general note: ATP-based viability assays read luminescence as a measure of living cells.
For experiment [10], the target named is FAD-linked sulfhydryl oxidase ALR (Homo sapiens, UniProt P55789). Put plainly: ALR-catalysed DTT oxidation blockers – biochemical, H2O2 detection, luminescence, cherry-pick, dose response (AID 493248).
The next experiment has as its system HEK293. Put plainly: cells. The experiment is classed as functional, cell-based. To be noted: Homo sapiens.
In experiment [11] the target is T3, Nuclear receptor subfamily 0 group B member 1 (Homo sapiens, UniProt P51843).
T3 sequence (P51843 whole entry): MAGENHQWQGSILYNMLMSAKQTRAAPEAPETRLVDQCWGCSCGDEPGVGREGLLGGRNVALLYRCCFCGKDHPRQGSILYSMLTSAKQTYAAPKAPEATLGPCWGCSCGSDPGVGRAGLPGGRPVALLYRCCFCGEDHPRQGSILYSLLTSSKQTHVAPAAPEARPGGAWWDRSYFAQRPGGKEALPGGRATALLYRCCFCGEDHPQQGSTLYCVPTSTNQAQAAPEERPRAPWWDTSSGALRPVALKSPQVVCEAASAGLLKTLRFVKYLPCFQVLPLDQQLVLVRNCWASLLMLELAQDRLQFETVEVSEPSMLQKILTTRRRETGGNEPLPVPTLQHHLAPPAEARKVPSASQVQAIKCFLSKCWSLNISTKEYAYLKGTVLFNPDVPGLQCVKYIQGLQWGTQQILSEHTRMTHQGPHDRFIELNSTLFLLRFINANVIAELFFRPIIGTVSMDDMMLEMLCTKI
Briefly: Luminescence-based cell-based high throughput dose response assay for inhibitors of the orphan nuclear receptor subfamily 0, group B, member 1 (DAX1; NR0B1). [Related pubchem assays (depositor defined):AID504766, AID504790]. In kind it is functional.

Experiment [12] deals with Oxysterols receptor LXR-beta (Homo sapiens, UniProt P55055). In kind it is functional, cell-based.
Experiment [13] in a line: cells.
The nature of experiment [14]: cells. In kind it is functional, cell-based.
Experiment [15] deals with T4, Trace amine-associated receptor 1 (Homo sapiens, UniProt Q96RJ0).
T4 sequence (Q96RJ0 whole entry): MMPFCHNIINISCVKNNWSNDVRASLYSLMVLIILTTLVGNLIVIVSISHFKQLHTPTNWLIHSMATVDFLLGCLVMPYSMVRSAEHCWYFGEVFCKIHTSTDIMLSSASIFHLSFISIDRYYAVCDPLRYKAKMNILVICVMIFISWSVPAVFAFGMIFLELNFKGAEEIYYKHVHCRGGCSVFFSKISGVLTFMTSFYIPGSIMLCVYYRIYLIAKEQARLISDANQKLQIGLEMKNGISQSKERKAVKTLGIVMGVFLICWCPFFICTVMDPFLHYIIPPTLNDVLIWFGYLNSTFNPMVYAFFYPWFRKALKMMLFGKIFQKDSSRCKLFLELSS
Put plainly: Fluorescence-based cell-based high throughput dose response assay to identify agonists of the human trace amine associated receptor 1 (TAAR1). In kind it is functional.

Experiment [16] has as its target T4, Trace amine-associated receptor 1. Put plainly: Counterscreen for agonists of the human trace amine associated receptor 1 (hTAAR1): Fluorescence-based cell-based high throughput dose response assay to identify hTAAR1 agonist that also desensitize TAAR1 receptor response. The experiment is classed as functional. In general terms: The purpose of a counterscreen is to sort out artefacts and off-target activity.

Experiment [17] is described as follows: cells. In kind it is functional, cell-based. The source holds these as a separate data set.
The nature of experiment [18]: IGROV1 cell killing – plate reader, dry powder samples, PAX8 inhibitor project, dose response (AID 743043). The experiment is classed as functional, cell-based. The note with it: IGROV-1.
The next experiment deals with Albumin (Bos taurus, UniProt P02769). Put plainly: Counterscreen for inhibitors of T-cell receptor (TCR)-CD3 interaction: Fluorescence-based biochemical high throughput dose response assay to identify inhibitors of T-cell receptor (TCR)-CD3 interaction using a TAMRA-labeled BSA probe. The experiment is classed as functional.
The nature of experiment [19]: rescue of ΔF508 CFTR function, airway epithelium – human bronchial epithelial cells, plate reader, cherry-pick, two tests, dose response (AID 743267). In kind it is functional, cell-based.
Experiment [20] can be described thus: Luminescence Cell-Based Dose Retest to Confirm Inhibitors of Cancer Stem Cells. [Related pubchem assays (depositor defined):AID2717, AID2721]. The experiment is classed as functional. The note with it: Homo sapiens.

Active and inactive are the calls of the source. Where only a bound is given, the exact number is not on record here.

Sequence of Oxysterols receptor LXR-beta (P55055 whole entry): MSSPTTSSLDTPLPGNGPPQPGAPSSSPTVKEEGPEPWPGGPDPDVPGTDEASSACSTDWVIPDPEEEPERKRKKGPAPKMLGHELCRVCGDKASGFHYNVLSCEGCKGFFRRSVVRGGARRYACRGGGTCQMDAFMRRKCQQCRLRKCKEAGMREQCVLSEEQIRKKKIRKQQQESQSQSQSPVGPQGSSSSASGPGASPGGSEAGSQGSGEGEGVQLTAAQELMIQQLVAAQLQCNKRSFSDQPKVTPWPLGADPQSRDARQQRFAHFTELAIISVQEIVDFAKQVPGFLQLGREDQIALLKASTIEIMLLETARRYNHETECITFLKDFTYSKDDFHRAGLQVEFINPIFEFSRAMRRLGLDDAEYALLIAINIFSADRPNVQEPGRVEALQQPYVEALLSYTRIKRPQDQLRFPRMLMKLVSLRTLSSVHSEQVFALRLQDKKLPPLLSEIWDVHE
Sequence of Paired box protein Pax-8 (Q06710 whole entry): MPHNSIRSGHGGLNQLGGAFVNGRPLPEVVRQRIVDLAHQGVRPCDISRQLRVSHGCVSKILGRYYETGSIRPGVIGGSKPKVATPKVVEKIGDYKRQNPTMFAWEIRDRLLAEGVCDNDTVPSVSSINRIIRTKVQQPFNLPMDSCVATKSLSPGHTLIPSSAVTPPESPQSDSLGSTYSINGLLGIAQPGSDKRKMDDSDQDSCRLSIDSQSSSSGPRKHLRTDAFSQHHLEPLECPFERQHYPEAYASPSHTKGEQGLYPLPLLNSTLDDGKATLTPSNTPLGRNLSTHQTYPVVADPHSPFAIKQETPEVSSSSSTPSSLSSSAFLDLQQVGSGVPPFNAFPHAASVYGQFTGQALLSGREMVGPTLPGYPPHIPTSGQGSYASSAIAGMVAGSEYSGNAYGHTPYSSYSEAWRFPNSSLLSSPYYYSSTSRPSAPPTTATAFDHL
Sequence of Kallikrein-7 (P49862 whole entry): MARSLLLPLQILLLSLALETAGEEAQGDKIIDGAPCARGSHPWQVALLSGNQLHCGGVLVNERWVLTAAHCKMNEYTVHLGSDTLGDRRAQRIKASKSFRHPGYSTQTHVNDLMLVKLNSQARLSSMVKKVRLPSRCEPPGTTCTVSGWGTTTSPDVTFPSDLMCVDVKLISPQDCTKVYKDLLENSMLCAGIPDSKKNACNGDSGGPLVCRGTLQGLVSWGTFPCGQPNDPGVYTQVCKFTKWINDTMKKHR
T1 sequence (Q8VNN2 whole entry): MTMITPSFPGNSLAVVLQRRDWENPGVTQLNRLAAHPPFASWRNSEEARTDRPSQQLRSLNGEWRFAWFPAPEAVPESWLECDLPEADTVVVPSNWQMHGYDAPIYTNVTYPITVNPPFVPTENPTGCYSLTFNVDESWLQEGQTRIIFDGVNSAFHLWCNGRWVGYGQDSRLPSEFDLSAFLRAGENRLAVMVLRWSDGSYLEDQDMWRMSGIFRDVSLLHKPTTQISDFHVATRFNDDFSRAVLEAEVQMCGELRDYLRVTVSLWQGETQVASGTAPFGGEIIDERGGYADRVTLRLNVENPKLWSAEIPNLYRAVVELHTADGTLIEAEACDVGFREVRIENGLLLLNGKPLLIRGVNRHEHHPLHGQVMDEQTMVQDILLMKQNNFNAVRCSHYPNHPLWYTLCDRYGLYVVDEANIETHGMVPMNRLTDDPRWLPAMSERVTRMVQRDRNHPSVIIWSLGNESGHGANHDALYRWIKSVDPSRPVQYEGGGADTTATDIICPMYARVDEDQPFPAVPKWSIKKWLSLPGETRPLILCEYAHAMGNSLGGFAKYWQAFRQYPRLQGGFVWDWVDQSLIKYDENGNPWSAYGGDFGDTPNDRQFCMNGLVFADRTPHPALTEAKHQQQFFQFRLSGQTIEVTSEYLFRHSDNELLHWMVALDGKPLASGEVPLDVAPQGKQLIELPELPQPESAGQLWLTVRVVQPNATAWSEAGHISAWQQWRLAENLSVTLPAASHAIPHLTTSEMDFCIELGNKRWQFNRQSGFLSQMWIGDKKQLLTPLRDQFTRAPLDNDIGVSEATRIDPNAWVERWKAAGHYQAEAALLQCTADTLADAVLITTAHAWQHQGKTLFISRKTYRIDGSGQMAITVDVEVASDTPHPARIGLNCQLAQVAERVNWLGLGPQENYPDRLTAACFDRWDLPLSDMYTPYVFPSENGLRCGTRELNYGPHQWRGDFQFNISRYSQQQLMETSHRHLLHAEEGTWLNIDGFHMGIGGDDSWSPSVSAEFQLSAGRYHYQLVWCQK
Sequence of Albumin (P02769 whole entry): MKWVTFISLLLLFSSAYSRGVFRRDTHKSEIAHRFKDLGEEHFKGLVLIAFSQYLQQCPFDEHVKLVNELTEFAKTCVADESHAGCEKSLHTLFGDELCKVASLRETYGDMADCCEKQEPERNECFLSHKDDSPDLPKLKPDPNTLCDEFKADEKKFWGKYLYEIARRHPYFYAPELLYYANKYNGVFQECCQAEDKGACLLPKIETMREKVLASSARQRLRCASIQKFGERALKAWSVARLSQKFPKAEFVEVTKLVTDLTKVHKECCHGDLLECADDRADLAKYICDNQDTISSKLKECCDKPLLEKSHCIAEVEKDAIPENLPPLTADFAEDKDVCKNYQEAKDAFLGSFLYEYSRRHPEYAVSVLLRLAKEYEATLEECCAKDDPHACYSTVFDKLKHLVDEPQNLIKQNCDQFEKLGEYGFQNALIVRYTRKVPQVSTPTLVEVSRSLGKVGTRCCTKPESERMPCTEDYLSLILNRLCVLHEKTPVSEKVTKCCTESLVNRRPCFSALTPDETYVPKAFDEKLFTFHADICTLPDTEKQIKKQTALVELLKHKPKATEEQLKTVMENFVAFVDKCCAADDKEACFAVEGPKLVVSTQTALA
Sequence of RNA-editing ligase 1, mitochondrial (P86926 whole entry): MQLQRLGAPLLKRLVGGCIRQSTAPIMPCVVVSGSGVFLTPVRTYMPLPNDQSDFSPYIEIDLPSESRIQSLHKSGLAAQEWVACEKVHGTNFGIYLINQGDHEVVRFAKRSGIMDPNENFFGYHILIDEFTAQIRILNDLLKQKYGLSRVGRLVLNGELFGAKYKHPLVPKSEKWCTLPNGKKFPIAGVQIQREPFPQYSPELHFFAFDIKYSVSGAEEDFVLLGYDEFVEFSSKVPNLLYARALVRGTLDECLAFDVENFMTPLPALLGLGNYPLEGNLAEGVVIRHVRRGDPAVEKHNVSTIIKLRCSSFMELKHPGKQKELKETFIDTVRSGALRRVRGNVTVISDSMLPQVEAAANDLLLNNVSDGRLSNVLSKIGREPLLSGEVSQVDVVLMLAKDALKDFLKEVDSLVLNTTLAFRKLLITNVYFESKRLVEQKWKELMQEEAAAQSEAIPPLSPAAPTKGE
Sequence of FAD-linked sulfhydryl oxidase ALR (P55789 whole entry): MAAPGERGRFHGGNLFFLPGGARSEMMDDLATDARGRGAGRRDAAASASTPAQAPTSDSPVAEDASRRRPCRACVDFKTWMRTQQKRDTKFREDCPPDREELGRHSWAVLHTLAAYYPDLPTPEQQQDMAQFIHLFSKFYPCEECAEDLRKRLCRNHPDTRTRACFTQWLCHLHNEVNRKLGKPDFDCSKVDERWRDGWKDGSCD

The AC50 is the midpoint of the concentration-response curve, whichever way the signal moves. As to `COc1ccc(-c2ccc3c(c2)[C@H]2[C@H](CCN2S(=O)(=O)c2ccc(OC)cc2)[C@@H](CO)N3C)cc1`, the AC50 on Paired box protein Pax-8 was 9.39 µM (active); in experiment [1] it was 38.1 µM (active); in experiment [2], 15.6 µM (active); in experiment [3], 34.7 µM (active).

What is called EC50 is the concentration at which the effect is half-maximal. As to `COc1cccc2cccc(/C=N/n3cnnc3)c12`, the EC50 on Kallikrein-7 is > 69.5 µM (inactive).

Broadly, the IC50 is the point on the concentration scale where inhibition reaches its midpoint. With `Cc1cc(C)c(OCCCNCc2ccccc2)c(Br)c1`, in experiment [4], the IC50 is > 96.6 µM (inactive).

For the compound `Cc1ccc(C(=O)CNc2ccc(Br)cc2)cc1`, the EC50 on Beta-galactosidase [5] was > 40 µM (inactive). Moreover, the IC50 in experiment [6] is 7.47 µM (active); at Beta-galactosidase [7], > 80 µM (inactive).

On to `COc1cccc(-c2cc(C(=O)NC3=C(Cl)C(=O)c4ccccc4C3=O)ccc2OC)c1`, for which the AC50 in experiment [8] and in experiment [9] was > 70 µM (inactive) throughout.

`Cc1ccc(N/N=C(\C#N)C(=N)N2CCCCC2)cc1`: in experiment [10], the AC50 is 0.228 µM (active). The IC50 is > 0.278 µM (active) with HEK293 and > 67.5 µM (inactive) in [11]. Besides, the EC50 (in [12]; in the experiment “cells [13]”) was > 67.6 µM (inactive) throughout.

Regarding `OC(COC(c1ccc(F)cc1)c1ccc(F)cc1)CN1CCCC(C(F)(F)F)C1` (configuration not stated), the IC50 in the experiment “cells [14]” is > 29.9 µM (inactive); in experiment [16], 8.46 µM (active). For the same compound, the EC50 in experiment [15] was 2.52 µM (active); in the experiment “cells [17]”, > 29.9 µM (inactive).

On to `NS(=O)(=O)c1ccc(CCNC(=O)C2CCC(CNS(=O)(=O)c3ccc(Br)s3)CC2)cc1` (configuration not stated), for which the IC50 was > 29.9 µM (inactive) in “cells [14]” and 1.16 µM (active) in experiment [16]. Also, the EC50 (in experiment [15]; in “cells [17]”) was > 29.9 µM (inactive) each time.

Regarding `C[C@@H]1CCCCO[C@H](CN(C)C(=O)Nc2ccc(C(F)(F)F)cc2)[C@@H](C)CN([C@@H](C)CO)C(=O)c2cc(NS(=O)(=O)c3ccc(Cl)cc3)ccc2O1`, the AC50 on Paired box protein Pax-8 is 3.44 µM (active); in [2], 29.1 µM (active); in [18], 46.1 µM (active); in [3], 36.2 µM (active).

With `Clc1ccccc1NN=Cc1ccccn1`, the EC50 (in experiment [12]; in “cells [13]”) was > 67.6 µM (inactive) throughout.

In the case of `CN1C(=O)c2ccccc2N(C)C1c1ccc2c(c1)OCO2` (configuration not stated), the EC50 on Kallikrein-7 was > 69.5 µM (inactive).

For the compound `O=C(CCCN1C(=O)/C(=C/c2cccs2)SC1=S)NNC(=O)c1ccccc1O`, the IC50 at Albumin was > 94.1 µM (inactive).

As to `C=CCNC1=C(N2CCCCC2)C(=O)c2ccccc2C1=O`, the AC50 in [8] is 29.1 µM (active); in experiment [9], 5.82 µM (active).

On to `NS(=O)(=O)c1ccc(S(=O)(=O)N(CCc2ccccc2)Cc2ccccn2)cc1`, for which, in experiment [19], the AC50 is < 0.0235 µM (active).

Consider `CN(C)CCn1c2ccccc2c2nc3ccc([N+](=O)[O-])cc3cc21`, for which the AC50 in [20] was 2.35 µM (active); in experiment [19] it was 55.7 µM (active).
